# Results from patent publication US4746659A, “Diastereomers of 10-alkyl-10-deazaminopterins and process for preparing the same” (priority 1985, dated 1988).
# “Also recorded” adds a separate entry of the source. Read-outs that look alike come from different tables or passages of the source.
# Legend:
# [1] = test system: Streptococcus faecium; conditions: cited from earlier work
# [2] = test system: Streptococcus faecium; assay: Growth inhibition of Streptococcus faecium (ATCC 8043); assay type: cell-based; conditions: for IC50: Enterococcus faecium, ATCC8043, read-out: Minimum Inhibitory Concentration50 for growth inhibition, S. faecium, S. faecium ATCC 8043; for IC50 / Minimum Inhibitory Concentration50 for growth inhibition, S. faecium: folate concentration = 1 ng/mL; for potency against S. faecium, comparison: comparison in words; for Minimum Inhibitory Concentration50 for growth inhibition, S. faecium: S. faecium ATCC 8043
# [3] = target: T1, transport protein of L1210 (Mus musculus, UniProt P41438); assay: Transport (influx, efflux) in L1210 cells; assay type: cell-based; conditions: average of 3-6 runs, standard error less than 15%
# T1 sequence (P41438 1-512): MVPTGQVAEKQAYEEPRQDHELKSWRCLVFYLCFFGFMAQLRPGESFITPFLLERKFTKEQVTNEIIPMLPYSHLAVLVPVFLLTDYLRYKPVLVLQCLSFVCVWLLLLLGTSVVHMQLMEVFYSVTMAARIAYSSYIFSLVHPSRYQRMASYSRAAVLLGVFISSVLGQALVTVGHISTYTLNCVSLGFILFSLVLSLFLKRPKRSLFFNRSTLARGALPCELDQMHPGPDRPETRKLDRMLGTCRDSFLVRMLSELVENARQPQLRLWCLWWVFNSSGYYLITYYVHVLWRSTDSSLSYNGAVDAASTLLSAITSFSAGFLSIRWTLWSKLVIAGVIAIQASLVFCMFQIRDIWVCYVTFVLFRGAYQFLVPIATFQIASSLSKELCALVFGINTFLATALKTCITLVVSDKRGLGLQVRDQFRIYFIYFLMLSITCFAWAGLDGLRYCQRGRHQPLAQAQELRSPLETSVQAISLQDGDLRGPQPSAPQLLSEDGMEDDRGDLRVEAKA
# [4] = target: T2, dihydrofolate reductase derived from L1210 (Mus musculus, UniProt P00375); assay: Inhibition of dihydrofolate reductase derived from L1210 cells; assay type: biochemical; conditions: comparison in words
# T2 construct: dihydrofolate reductase derived from L1210; endogenous in cells; host or cells: L1210 cells
# T2 sequence (P00375 1-187): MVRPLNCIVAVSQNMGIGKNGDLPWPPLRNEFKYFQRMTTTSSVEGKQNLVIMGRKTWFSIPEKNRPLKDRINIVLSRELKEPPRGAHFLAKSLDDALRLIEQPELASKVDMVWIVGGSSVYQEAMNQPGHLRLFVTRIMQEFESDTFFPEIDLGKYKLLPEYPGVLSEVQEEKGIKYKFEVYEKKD
# [5] = test system: L1210 cells; assay: Growth inhibition of L1210 cells; assay type: cell-based; conditions: for IC50: average of 3-6 runs, standard error less than 15%, read-out: growth inhibn (minimum inhibitory concentration50); for inhibition of growth for L1210 cells, comparison between isomers: comparison in words
# [6] = test system: L1210 leukemia; assay: Antitumor activity against L1210 leukemia in mice; assay type: in vivo, BD (2) F1 female mice; conditions: sc every 2 days times 5; for Mean Survival Time: untreated control 6.6 days
# [7] = target: dihydrofolate reductase derived from L. casei (Lacticaseibacillus casei, UniProt P00381); assay: DHFR inhibition, enzyme derived from L. casei; assay type: biochemical; conditions: relative to l,L-isomer
# [8] = test system: experimental murine tumor models; conditions: compared with methotrexate or 10-deazaminopterin; cited from earlier work
# [9] = test system: human mammary, lung and colon tumor xenografts; conditions: lung and colon tumor xenografts in nude mice; cited from earlier work
# [10] = Various in vitro assays (general statement); conditions: Tables I, II and III
# [11] = Mus musculus, L1210, L1210 cells
# [12] = 9 mg/kg, listed as racemic mixture
# [13] = 12 mg/kg, listed as racemic mixture
# [14] = 18 mg/kg, listed as racemic mixture
# [15] = 24 mg/kg, listed as racemic mixture
# Chain of dihydrofolate reductase derived from L. casei (P00381 whole entry): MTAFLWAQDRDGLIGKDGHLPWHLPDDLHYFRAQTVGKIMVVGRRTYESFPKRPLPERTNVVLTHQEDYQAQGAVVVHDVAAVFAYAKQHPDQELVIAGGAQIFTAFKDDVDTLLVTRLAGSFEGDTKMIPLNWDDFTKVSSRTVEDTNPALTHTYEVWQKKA
smiles,measurement,setting,value
Nc1nc2c(c(=O)[nH]1)NC(CCc1ccc(C(=O)O)cc1)CN2 (centres unmarked),growth-inhibitory activity against Streptococcus faecium,[1],Activity was greatly enhanced by reduction to the tetrahydro compound
Nc1nc2ncc(CCc3ccc(C(=O)O)cc3)nc2c(=O)[nH]1 [10-deazapteroic acid],growth-inhibitory activity against Streptococcus faecium,[1],potent growth-inhibitory activity
"CCC(CC1=Nc2c(N)nc(N)nc2NC1)c1ccc(C(=O)N[C@@H](CCC(=O)O)C(=O)O)cc1 (some centres unmarked) [7,8-dihydro l, L]",IC50,[2],1.1 ng/mL
"CC(Cc1cnc2nc(N)nc(N)c2n1)c1ccc(C(=O)N[C@@H](CCC(=O)O)C(=O)O)cc1 (single isomer, unassigned) [l, L-10-methyl, 10-methyl-10-deazaminopterin]",transport efflux k,[3],0.267 min⁻¹
same,"inhibition of dihydrofolate reductase derived from L1210, comparison between isomers",[4],not significantly different from one another or MTX
same,IC50,[5]; [11],1.18 nM
same,"inhibition of growth for L1210 cells, comparison between isomers",[5],not a significant difference
"CCC(CC1CNc2nc(N)nc(N)c2N1)c1ccc(C(=O)N[C@@H](CCC(=O)O)C(=O)O)cc1 (some centres unmarked) [5,6,7,8-tetrahydro l, L]",IC50,[2],3.1 ng/mL
"CCC(Cc1cnc2nc(N)nc(N)c2n1)c1ccc(C(=O)N[C@@H](CCC(=O)O)C(=O)O)cc1 (single isomer, unassigned) [l, L-10-ethyl, l,L-10-ethyl-10-deazaminopterin]",transport efflux k,[3],0.249 min⁻¹
same,"potency against S. faecium, comparison",[2],"slightly more potent than the d,L-isomer"
same,IC50,[5]; [11],1.52 nM
same,"inhibition of growth for L1210 cells, comparison between isomers",[5],"only one-third as potent as the d,L isomer"
"CN(Cc1cnc2nc(N)nc(N)c2n1)c1ccc(C(=O)N[C@@H](CCC(=O)O)C(=O)O)cc1 [methotrexate, reference compound]",transport efflux k,[3],0.213 min⁻¹
same,30-day survivors,[6]; 9 mg/kg,0/10
same,Increased Life Span,[6]; 9 mg/kg,+137%
same,Toxic deaths,[6]; 9 mg/kg,0/10
same,Mean Survival Time,[6]; 9 mg/kg,15.7 ± 0.4 days
same,30-day survivors,[6]; 12 mg/kg,0/10
same,Toxic deaths,[6]; 12 mg/kg,1/10
same,Mean Survival Time,[6]; 12 mg/kg,16.3 ± 0.7 days
same,30-day survivors,[6]; 18 mg/kg,0/10
same,Increased Life Span,[6]; 18 mg/kg,+119%
same,Toxic deaths,[6]; 18 mg/kg,6/10
same,Mean Survival Time,[6]; 18 mg/kg,14.5 ± 1.6 days
same,30-day survivors,[6]; 24 mg/kg,0/10
same,Increased Life Span,[6]; 24 mg/kg,+46%
same,Toxic deaths,[6]; 24 mg/kg,10/10
same,Mean Survival Time,[6]; 24 mg/kg,9.6 ± 1.1 days
same,IC50,[5]; L1210 cells,2.48 nM
"CCC(CC1CNc2nc(N)nc(N)c2N1)c1ccc(C(=O)N[C@@H](CCC(=O)O)C(=O)O)cc1 (some centres unmarked) [5,6,7,8-tetrahydro d, L]","Minimum Inhibitory Concentration50 for growth inhibition, S. faecium",[2],2.5 ng/mL
same,"potency against S. faecium, comparison",[2],"slightly more potent than the l,L isomer"
"CCC(Cc1cnc2nc(N)nc(N)c2n1)c1ccc(C(=O)N[C@@H](CCC(=O)O)C(=O)O)cc1 (stereo partly drawn) [d, L-10-ethyl, d,L-10-ethyl-10-deazaminopterin]",transport efflux k,[3],0.253 min⁻¹
same,"inhibition of dihydrofolate reductase derived from L1210, comparison between isomers","[4]; listed as d,L isomer of 10-ethyl-10-deazaminopterin","significantly more effective; also recorded: three-fold difference between l,L and d,L isomers"
same,30-day survivors,"[6]; 9 mg/kg, listed as d, L",0/6
same,Increased Life Span,"[6]; 9 mg/kg, listed as d, L",+177%
same,Toxic deaths,"[6]; 9 mg/kg, listed as d, L",0/6
same,Mean Survival Time,"[6]; 9 mg/kg, listed as d, L",18.3 ± 1.7 days
same,30-day survivors,"[6]; 12 mg/kg, listed as d, L",0/9
same,Increased Life Span,"[6]; 12 mg/kg, listed as d, L",+199%
same,Toxic deaths,"[6]; 12 mg/kg, listed as d, L",3/9
same,Mean Survival Time,"[6]; 12 mg/kg, listed as d, L",19.8 ± 2.3 days
same,30-day survivors,"[6]; 18 mg/kg, listed as d, L",1/9
same,Increased Life Span,"[6]; 18 mg/kg, listed as d, L",> +165%
same,Toxic deaths,"[6]; 18 mg/kg, listed as d, L",5/9
same,Mean Survival Time,"[6]; 18 mg/kg, listed as d, L",17.5 ± 1.5 days
same,30-day survivors,"[6]; 24 mg/kg, listed as d, L",0/3
same,Increased Life Span,"[6]; 24 mg/kg, listed as d, L",+55%
same,Toxic deaths,"[6]; 24 mg/kg, listed as d, L",3/3
same,Mean Survival Time,"[6]; 24 mg/kg, listed as d, L",10.0 ± 0 days
same,IC50,[5]; [11],0.43 nM
same,"inhibition of growth for L1210 cells, comparison between isomers",[5],significantly more effective
same,"potency against the L. casei enzyme, d,L-isomer over l,L-isomer",[7],approximately three-fold greater potency
"CC(Cc1cnc2nc(N)nc(N)c2n1)c1ccc(C(=O)N[C@@H](CCC(=O)O)C(=O)O)cc1 (single isomer, unassigned) [d, L-10-methyl, 10-methyl-10-deazaminopterin]",transport efflux k,[3],0.258 min⁻¹
same,"inhibition of dihydrofolate reductase derived from L1210, comparison between isomers",[4],not significantly different from one another or MTX
same,IC50,[5]; L1210 cells,0.68 nM
same,"inhibition of growth for L1210 cells, comparison between isomers",[5],not a significant difference
"CCC(CC1CNc2nc(N)nc(N)c2N1)c1ccc(C(=O)N[C@@H](CCC(=O)O)C(=O)O)cc1 (mixture of isomers) [5,6,7,8-tetrahydro racemic mixture]","Minimum Inhibitory Concentration50 for growth inhibition, S. faecium",[2],2.6 ng/mL
CCC(Cc1cnc2nc(N)nc(N)c2n1)c1ccc(C(=O)N[C@@H](CCC(=O)O)C(=O)O)cc1 (some centres unmarked) [10-ethyl-10-deazaminopterin],effectiveness in experimental murine tumor models,[8],considerably more effective than methotrexate or 10-deazaminopterin
same,regression of human tumor xenografts,[9],frank regressions
same,30-day survivors,[6]; [12],0/10
same,Increased Life Span,[6]; [12],+135%
same,Toxic deaths,[6]; [12],0/10
same,Mean Survival Time,[6]; [12],15.5 ± 0.6 days
same,30-day survivors,[6]; [13],0/10
same,Increased Life Span,[6]; [13],+153%
same,Toxic deaths,[6]; [13],0/10
same,Mean Survival Time,[6]; [13],16.7 ± 0.7 days
same,30-day survivors,[6]; [14],0/10
same,Increased Life Span,[6]; [14],+193%
same,Toxic deaths,[6]; [14],0/10
same,Mean Survival Time,[6]; [14],19.3 ± 0.8 days
same,30-day survivors,[6]; [15],2/10
same,Increased Life Span,[6]; [15],> +207%
same,Toxic deaths,[6]; [15],2/10
same,Mean Survival Time,[6]; [15],20.3 ± 1.9 days
same,30-day survivors,[6]; 32 mg/kg,0/10
same,Increased Life Span,[6]; 32 mg/kg,+67%
same,Toxic deaths,[6]; 32 mg/kg,10/10
same,Mean Survival Time,[6]; 32 mg/kg,16.0 ± 1.1 days
same,"inhibitory activity in the various in vitro assays, comparison",[10],"intermediate between the values for the resolved d,L and l,L diasteromers"
